Read-outs that look alike come from different tables or passages of the source.
Tests used:
Assay type in all cases: cell-based
PPARδ [1] = target: T1, PPARδ (Homo sapiens, UniProt Q03181); assay: cell-based; details: PPAR-GAL4 chimeric receptors, transiently transfected CHO-K1 cells, ia = inactive at 10 μM; for EC50: read-out: Transactivation activity EC50 PPARδ
T1 sequence (Q03181 211-441 limits assumed): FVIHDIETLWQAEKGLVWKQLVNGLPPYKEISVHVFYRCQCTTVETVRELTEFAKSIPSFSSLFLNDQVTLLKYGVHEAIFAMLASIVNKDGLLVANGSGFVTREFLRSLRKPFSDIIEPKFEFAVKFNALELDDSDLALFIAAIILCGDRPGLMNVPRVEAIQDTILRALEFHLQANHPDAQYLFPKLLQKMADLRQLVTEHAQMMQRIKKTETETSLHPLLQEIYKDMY

PPARγ [2] = target: T2, PPARγ (Homo sapiens, UniProt P37231); assay: cell-based; details: PPAR-GAL4 chimeric receptors, transiently transfected CHO-K1 cells, ia = inactive at 10 μM
T2 sequence (P37231 232-505 limits assumed): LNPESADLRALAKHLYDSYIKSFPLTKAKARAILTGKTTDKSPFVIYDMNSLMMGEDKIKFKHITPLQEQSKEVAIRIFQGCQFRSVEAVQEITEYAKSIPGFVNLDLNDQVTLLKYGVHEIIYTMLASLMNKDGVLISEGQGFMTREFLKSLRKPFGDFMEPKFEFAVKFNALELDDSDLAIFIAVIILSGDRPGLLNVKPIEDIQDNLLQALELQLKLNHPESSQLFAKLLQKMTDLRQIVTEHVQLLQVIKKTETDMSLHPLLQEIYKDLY

PPARα [3] = target: T3, PPARα (Homo sapiens, UniProt Q07869); assay: PPARα-GAL4 chimeric receptor transactivation in CHO-K1 cells; details: for EC50: read-out: Transactivation activity EC50 PPARα; for Transactivation activity EC50 PPARα: PPAR-GAL4 chimeric receptors, transiently transfected CHO-K1 cells, ia = inactive at 10 μM
T3 sequence (Q07869 200-468 limits assumed): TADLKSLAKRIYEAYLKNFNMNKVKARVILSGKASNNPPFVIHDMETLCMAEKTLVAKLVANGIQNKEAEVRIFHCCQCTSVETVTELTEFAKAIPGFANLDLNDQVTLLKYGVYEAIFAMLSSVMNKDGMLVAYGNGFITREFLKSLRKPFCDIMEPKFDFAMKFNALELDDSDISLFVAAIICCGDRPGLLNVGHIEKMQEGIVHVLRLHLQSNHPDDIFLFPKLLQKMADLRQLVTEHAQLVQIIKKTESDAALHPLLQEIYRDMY

PPARα [4] = target: T3, PPARα; assay: PPARα-GAL4 chimeric receptor transactivation in HEK-293 cells; details: PPAR-GAL4 chimeric receptors, transiently transfected HEK-293 cells; ia = inactive at 10 μM
PPARδ [5] = target: T4, PPARδ (Homo sapiens, UniProt Q03181); assay: cell-based; details: PPAR-GAL4 chimeric receptors, transiently transfected HEK-293 cells; ia = inactive at 10 μM; read-out: Transactivation activity EC50 PPARδ
T4 sequence (Q03181 171-441 limits assumed): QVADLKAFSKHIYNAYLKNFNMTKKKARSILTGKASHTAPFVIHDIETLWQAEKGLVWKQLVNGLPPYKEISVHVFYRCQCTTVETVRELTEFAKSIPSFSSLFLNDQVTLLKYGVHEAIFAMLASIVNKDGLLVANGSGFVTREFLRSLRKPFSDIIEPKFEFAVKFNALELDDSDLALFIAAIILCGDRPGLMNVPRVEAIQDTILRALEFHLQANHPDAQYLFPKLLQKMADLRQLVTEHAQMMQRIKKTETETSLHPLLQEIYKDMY

PPARγ [6] = target: T5, PPARγ (Homo sapiens, UniProt P37231); assay: cell-based; details: for EC50: read-out: Transactivation activity EC50 PPARγ
T5 sequence (P37231 238-505 limits assumed): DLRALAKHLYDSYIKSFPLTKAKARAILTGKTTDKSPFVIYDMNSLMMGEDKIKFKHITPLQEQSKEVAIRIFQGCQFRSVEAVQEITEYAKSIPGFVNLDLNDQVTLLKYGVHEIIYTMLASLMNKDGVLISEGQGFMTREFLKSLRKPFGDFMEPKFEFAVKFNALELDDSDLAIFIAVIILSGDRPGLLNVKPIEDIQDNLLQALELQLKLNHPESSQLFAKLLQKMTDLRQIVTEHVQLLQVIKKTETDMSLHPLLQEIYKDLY

[7] = PPAR-GAL4 chimeric receptors, transiently transfected HEK-293 cells, ia = inactive at 10 μM

For `CCC(Cc1ccc(OC)c(C(=O)Nc2ccc(C(F)(F)F)cc2)c1)C(=O)O` (stereo not shown) [Compound 24], the “Transactivation activity EC50 PPARδ” value (PPARδ [1]) was “ia^(b)”, the “Transactivation activity EC50 PPARγ” value (PPARγ [2]) was “ia” and the EC50 (PPARα [3]) was 6000 nM.

In the case of `CCC(Cc1ccc(OC)c(C(=O)NCCc2ccc(C(F)(F)F)cc2)c1)C(=O)O` (stereo not shown) [Compound 25], the EC50 (PPARδ [1]) is reported as 1500 nM, the “Transactivation activity EC50 PPARγ” value (PPARγ [2]) is reported as “ia” and the EC50 (PPARα [3]) is reported as 740 nM.

`CCC(Cc1ccc(OC)c(C(=O)N(C)Cc2ccc(C(F)(F)F)cc2)c1)C(=O)O` (stereo not shown) [Compound 26] was tested, and the “Transactivation activity EC50 PPARδ” value (PPARδ [1]) was “ia”, the “Transactivation activity EC50 PPARγ” value (PPARγ [2]) was “ia” and the “Transactivation activity EC50 PPARα” value (PPARα [3]) was “ia”.

For `CCC(Cc1ccc(OC)c(NC(=O)Cc2ccc(C(F)(F)F)cc2)c1)C(=O)O` (stereo not shown) [Compound 27], the “Transactivation activity EC50 PPARδ” value (PPARδ [1]) was “ia”, the “Transactivation activity EC50 PPARγ” value (PPARγ [2]) was “ia” and the EC50 (PPARα [3]) was 130 nM.

For `CCC(Cc1ccc(OC)c(NC(=O)Nc2ccc(C(F)(F)F)cc2)c1)C(=O)O` (stereo not shown) [Compound 28], the “Transactivation activity EC50 PPARδ” value (PPARδ [1]) was “ia”, the “Transactivation activity EC50 PPARγ” value (PPARγ [2]) was “ia” and the “Transactivation activity EC50 PPARα” value (PPARα [3]) was “ia”.

`CCC(Cc1ccc(OC)c(CC(=O)Nc2ccc(C(F)(F)F)cc2)c1)C(=O)O` (stereo not shown) [Compound 29] was tested, and the “Transactivation activity EC50 PPARδ” value (PPARδ [1]) was “ia”, the “Transactivation activity EC50 PPARγ” value (PPARγ [2]) was “ia” and the EC50 (PPARα [3]) was 20 nM.

With `CCC(Cc1ccc(OC)c(C(=O)CCc2ccc(C(F)(F)F)cc2)c1)C(=O)O` (stereo not shown) [Compound 30] the “Transactivation activity EC50 PPARδ” value (PPARδ [1]) was “ia”, the EC50 (PPARγ [2]; read-out: Transactivation activity EC50 PPARγ) was 7.4 µM and the EC50 (PPARα [3]) was 320 nM.

`CCC(Cc1ccc(OC)c(CCCc2ccc(C(F)(F)F)cc2)c1)C(=O)O` (stereo not shown) [Compound 31] was tested, and the EC50 (PPARδ [1]) was 640 nM, the “Transactivation activity EC50 PPARγ” value (PPARγ [2]) was “ia” and the EC50 (PPARα [3]) was 860 nM.

In the case of `CCC(Cc1ccc(OC)c(OCCc2ccc(C(F)(F)F)cc2)c1)C(=O)O` (stereo not shown) [Compound 32], the EC50 (PPARδ [1]) is reported as 400 nM, the “Transactivation activity EC50 PPARγ” value (PPARγ [2]) is reported as “ia” and the EC50 (PPARα [3]) is reported as 680 nM.

With `CCC(Cc1ccc(OC)c(CNCc2ccc(C(F)(F)F)cc2)c1)C(=O)O` (stereo not shown) [Compound 34] the EC50 (PPARδ [1]) was 8000 nM, the “Transactivation activity EC50 PPARγ” value (PPARγ [2]) was “ia” and the EC50 (PPARα [3]) was 4900 nM.

`CCC(Cc1ccc(OC)c(CNC(=O)c2ccc(C(F)(F)F)c(F)c2)c1)C(=O)O` (stereo not shown) [Compound 39] showed an EC50 (PPARα [4]) of 11 nM, an EC50 (PPARδ [5]) of 51 nM and an EC50 (PPARγ [6]; [7]) of 6 µM.

`CCC(Cc1ccc(OC)c(CNC(=O)c2ccc(F)c(C(F)(F)F)c2)c1)C(=O)O` (stereo not shown) [Compound 40] was tested, and the EC50 (PPARα [4]) was 250 nM, the EC50 (PPARδ [5]) was 2000 nM and the “Transactivation activity EC50 PPARγ” value (PPARγ [6]; [7]) was “ia^(b)”.

With `CC[C@@H](Cc1ccc(OC)c(CNC(=O)c2ccc(C(F)(F)F)c(F)c2)c1)C(=O)O` [Compound 42] the EC50 (PPARα [4]) was 12 nM, the EC50 (PPARδ [5]) was 23 nM and the EC50 (PPARγ [6]) was 4.9 µM.

For `CC[C@H](Cc1ccc(OC)c(CNC(=O)c2ccc(C(F)(F)F)c(F)c2)c1)C(=O)O` [Compound 43], the EC50 (PPARα [4]) was 150 nM, the EC50 (PPARδ [5]) was 840 nM and the “Transactivation activity EC50 PPARγ” value (PPARγ [6]; [7]) was “ia^(b)”.

With `CCOc1ccc(CC(CC)C(=O)O)cc1CNC(=O)c1ccc(C(F)(F)F)cc1` (stereo not shown) [Compound 50] the EC50 (PPARα [4]) was 12 nM, the EC50 (PPARδ [5]) was 15 nM and the EC50 (PPARγ [6]; [7]) was 1.8 µM.

Compound `CCC(Cc1ccc(OCc2ccccc2)c(CNC(=O)c2ccc(C(F)(F)F)cc2)c1)C(=O)O` (stereo not shown) [Compound 54] has an EC50 (PPARδ [5]) of 110 nM and an EC50 (PPARγ [6]) of 6.2 µM.

With `COc1ccc(CCC(=O)O)cc1CNC(=O)c1ccc(C(F)(F)F)cc1` [Compound 58] the EC50 (PPARα [4]) was 210 nM and the EC50 (PPARδ [5]) was 3000 nM.

In the case of `COc1ccc(CC(C)C(=O)O)cc1CNC(=O)c1ccc(C(F)(F)F)cc1` (stereo not shown) [Compound 59], the EC50 (PPARα [4]) is reported as 19 nM and the EC50 (PPARδ [5]) is reported as 210 nM.

For `COc1ccc(CC2SC(=O)NC2=O)cc1C(=O)NCc1ccc(C(F)(F)F)cc1` (stereo not shown) [KRP-297, reference compound], the “Transactivation activity EC50 PPARδ” value (PPARδ [1]) was “ia”.

Reference: PMC2430034, “Structural Development Studies of Subtype-Selective Ligands for Peroxisome Proliferator-Activated Receptors (PPARs) Based on the 3,4-Disubstituted Phenylpropanoic Acid Scaffold as a Versatile Template” (PPAR Research, 2008)
